Test in all cases: In vitro MMP inhibition analysis (fluorogenic peptide substrate cleavage), Ki
What all share (assay type): biochemical
Conditions in all cases: Table 2

The target of one assay is T1, Human recombinant MMP-9 (Homo sapiens, UniProt P14780).
T1 construct: made in house; host or cells: MMP-9-transfected HT1080 cells (spent media)
The method in brief: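 Recombinant MMP-9 purified from transfected HT1080 cell media, activated with APMA, trypsin or recombinant MMP-3, assayed in Tris buffer pH 7.5 with CaCl2 and 4 μM fluorogenic MCA/Dpa peptide, 1 h at room temperature (ex 330/em 420 nm). Ki from Morrison-equation regression of velocity; substrate at or below Km, uncorrected.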

The next assay concerns the target T2, Human recombinant MMP-2 (Homo sapiens, UniProt P08253).
T2 construct: made in house; host or cells: MMP-2-transfected p2AHT2 cells
T2 sequence (P08253 110-660): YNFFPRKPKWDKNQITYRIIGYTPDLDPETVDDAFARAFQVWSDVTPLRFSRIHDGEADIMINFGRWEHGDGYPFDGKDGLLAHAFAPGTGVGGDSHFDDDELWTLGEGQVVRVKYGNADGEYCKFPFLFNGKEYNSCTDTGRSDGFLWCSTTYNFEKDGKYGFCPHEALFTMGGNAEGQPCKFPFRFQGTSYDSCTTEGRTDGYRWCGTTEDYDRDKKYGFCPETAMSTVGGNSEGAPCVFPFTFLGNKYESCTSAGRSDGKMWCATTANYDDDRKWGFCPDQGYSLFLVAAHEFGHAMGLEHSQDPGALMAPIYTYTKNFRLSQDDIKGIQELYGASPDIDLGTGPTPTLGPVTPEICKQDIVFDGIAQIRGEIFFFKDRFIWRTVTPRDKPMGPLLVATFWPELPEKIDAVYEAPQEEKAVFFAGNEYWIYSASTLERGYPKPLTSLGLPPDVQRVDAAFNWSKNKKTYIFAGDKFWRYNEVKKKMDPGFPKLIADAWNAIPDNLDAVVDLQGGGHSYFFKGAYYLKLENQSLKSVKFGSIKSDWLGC
The method in brief: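 Human recombinant MMP-2 from transfected p2AHT2 cells was activated with APMA or trypsin and incubated 1 h at room temperature with compounds and 4 μM MCA-RPLGL(Dpa)ARER-NH2. Buffer was pH 7.5 Tris/NaCl/CaCl2, and fluorescence was read at ex 330/em 420 nm. Ki was fitted by Morrison's equation without substrate correction.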

The target of another assay is T3, Human recombinant MMP-1 (Homo sapiens, UniProt P03956).
T3 construct: made in house; host or cells: MMP-1-transfected HT-1080 cells (spent media)
T3 sequence (P03956 100-469): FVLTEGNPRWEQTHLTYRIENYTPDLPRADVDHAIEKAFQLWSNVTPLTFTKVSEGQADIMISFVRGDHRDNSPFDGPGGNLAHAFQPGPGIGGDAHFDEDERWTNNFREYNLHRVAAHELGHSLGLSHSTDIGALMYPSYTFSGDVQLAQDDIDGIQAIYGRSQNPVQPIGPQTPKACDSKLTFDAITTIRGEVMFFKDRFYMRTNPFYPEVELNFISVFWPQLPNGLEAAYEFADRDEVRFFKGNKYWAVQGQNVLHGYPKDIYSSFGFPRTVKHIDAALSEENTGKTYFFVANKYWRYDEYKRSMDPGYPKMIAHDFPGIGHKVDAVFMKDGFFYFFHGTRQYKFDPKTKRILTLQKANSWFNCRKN
The method in brief:
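APMA- or trypsin-activated recombinant human MMP-1 (purified from transfected HT-1080 medium) with 4 μM MCA/Dpa quenched fluorogenic peptide, 1 h at room temperature in Tris/NaCl/CaCl2 buffer pH 7.5; fluorescence ex 330/em 420 nm. Ki from Morrison-equation fit of rates, substrate at or below Km, uncorrected.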

Where only a bound is given, the exact number is not on record here.

T1 sequence (P14780 107-707 limits assumed): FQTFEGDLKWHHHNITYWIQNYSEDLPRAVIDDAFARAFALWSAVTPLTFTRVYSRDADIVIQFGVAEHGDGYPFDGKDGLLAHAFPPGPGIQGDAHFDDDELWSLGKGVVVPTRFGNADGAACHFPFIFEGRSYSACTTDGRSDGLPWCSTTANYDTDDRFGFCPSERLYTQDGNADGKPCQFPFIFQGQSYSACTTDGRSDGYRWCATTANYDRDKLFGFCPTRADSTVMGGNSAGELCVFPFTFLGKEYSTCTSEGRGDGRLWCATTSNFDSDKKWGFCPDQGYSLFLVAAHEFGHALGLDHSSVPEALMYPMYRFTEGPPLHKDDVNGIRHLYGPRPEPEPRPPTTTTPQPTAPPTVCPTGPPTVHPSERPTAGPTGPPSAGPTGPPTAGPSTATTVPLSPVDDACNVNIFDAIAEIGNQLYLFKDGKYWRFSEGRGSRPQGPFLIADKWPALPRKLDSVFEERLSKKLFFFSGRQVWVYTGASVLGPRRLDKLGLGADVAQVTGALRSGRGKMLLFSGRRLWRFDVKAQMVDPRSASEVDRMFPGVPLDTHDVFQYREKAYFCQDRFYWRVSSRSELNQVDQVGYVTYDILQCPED

For `COCCOc1ccc(-c2ccc(S(=O)(=O)C3(C(=O)NO)CCN(CCOC)CC3)cc2)cc1` [Example 115], the Ki at Human recombinant MMP-9 is 1.22 nM; at Human recombinant MMP-2, 0.276 nM; on Human recombinant MMP-1, 3370 nM.
The matching figures for `CC(C)CCOc1ccc(-c2ccc(S(=O)(=O)C3(C(=O)NO)CCOCC3)cc2)cc1` [Example 108]: 2.29 nM, 0.497 nM and 2120 nM.
Take `CCN1CCC(C(=O)NO)(S(=O)(=O)c2ccc(-c3ccc(OCCOC)cc3)cc2)CC1` [Example 111]: the inhibitory constant (Ki) is 3.3 nM at Human recombinant MMP-9, 0.645 nM at Human recombinant MMP-2 and 7360 nM at Human recombinant MMP-1.
The matching figures for `COCCN1CCC(C(=O)NO)(S(=O)(=O)c2ccc(-c3ccc(OCCN4CCCC4)cc3)cc2)CC1` [Example 72]: 12.9 nM, 5.81 nM and greater than 10000 nM.
The like results for `CCOCCOc1ccc(-c2ccc(S(=O)(=O)C3(C(=O)NO)CCN(CCOC)CC3)cc2)cc1` [Example 117] were, in that order, 3.93 nM, 0.208 nM and 4900 nM.
As to `O=C(NO)C1(S(=O)(=O)c2ccc(-c3ccc(CCO)cc3)cc2)CCOCC1` [Example 98], the figures for the inhibition constant (Ki) at Human recombinant MMP-9, on Human recombinant MMP-2 and on Human recombinant MMP-1 were 3.1 nM, 0.158 nM and 990 nM, respectively.
The matching figures for `COCCOc1ccc(-c2ccc(S(=O)(=O)C3(C(=O)NO)CCN(C4CC4)CC3)cc2)cc1` [Example 113]: 0.732 nM, 0.17 nM and 2910 nM.
The matching figures for `O=C(NO)C1(S(=O)(=O)c2ccc(-c3ccc(-c4ccccc4)cc3)cc2)CCOCC1` [Example 104]: 0.074 nM, 0.087 nM and 6910 nM.
With `CCOCCOc1ccc(-c2ccc(S(=O)(=O)C3(C(=O)NO)CCN(CC)CC3)cc2)cc1` [Example 116], the inhibition constant (Ki) at Human recombinant MMP-9 worked out at 9.39 nM; at Human recombinant MMP-2, 0.514 nM; on Human recombinant MMP-1 it was 8940 nM.
The matching figures for `COCCOc1ccc(-c2ccc(S(=O)(=O)C3(C(=O)NO)CCN(CCOC)CC3)cc2)cc1F` [Example 114]: 2.77 nM, 0.217 nM and 6550 nM.
The matching figures for `COCCOc1ccc(-c2ccc(S(=O)(=O)C3(C(=O)NO)CCN(C4CC4)CC3)cc2)cc1F` [Example 112]: 2.21 nM, 0.168 nM and 8580 nM.
The matching figures for `COc1ccc(-c2ccc(S(=O)(=O)C3(C(=O)NO)CCOCC3)cc2)cc1F` [Example 102]: 1.01 nM, 0.078 nM and 669 nM.
Consider `CCN1CCC(C(=O)NO)(S(=O)(=O)c2ccc(-c3ccc(OCCOC)c(F)c3)cc2)CC1` [Example 110], for which the results for the Ki on Human recombinant MMP-9, at Human recombinant MMP-2 and at Human recombinant MMP-1 were 11.2 nM, 0.539 nM and greater than 10000 nM, respectively.
The like results for `CCCCc1nc(-c2ccc(S(=O)(=O)C3(C(=O)NO)CCOCC3)cc2)no1` [Example 105] were, in that order, 2.15 nM, 5.79 nM and greater than 10000 nM.
The like results for `COC(C)CCOc1ccc(-c2ccc(S(=O)(=O)C3(C(=O)NO)CCOCC3)cc2)cc1C(F)(F)F` (stereo not drawn) [Example 100] were, in that order, 849 nM, 32.5 nM and greater than 10000 nM.
The like results for `CC(C)Cc1ccc(-c2ccc(S(=O)(=O)C3(C(=O)NO)CCOCC3)cc2)nc1` [Example 103] were, in that order, 1.38 nM, 0.278 nM and 2320 nM.
For `CC(C)CCc1ccc(-c2ccc(S(=O)(=O)C3(C(=O)NO)CCOCC3)cc2)nc1` [Example 99], the values for the inhibition constant Ki on Human recombinant MMP-9, on Human recombinant MMP-2 and on Human recombinant MMP-1 were 0.211 nM, 0.112 nM and 3080 nM, respectively.
The matching figures for `O=C(NO)C1(S(=O)(=O)c2ccc(-c3cnccn3)cc2)CCOCC1` [Example 71]: 42.8 nM, 5.96 nM and 2960 nM.
Take `CCCCCc1ccc(-c2ccc(S(=O)(=O)C3(C(=O)NO)CCOCC3)cc2)c(F)c1` [Example 101]: the values for the inhibition constant (Ki) at Human recombinant MMP-9, on Human recombinant MMP-2 and at Human recombinant MMP-1 were 3.05 nM, 0.878 nM and 9030 nM, respectively.
